The subject of assay [1] is B16a Tumor Cells. The assay can be described thus: "Experimental" metastasis (lung colonies) induced by tail vein injection of B16a tumor cells. The assay is classed as in vivo, mouse. As to conditions: oral, mice; for % of Control (mean number of metastatic lesions on lung surface): 1 h before and 1 h after tumor cells, 21 days, x ± SEM, n = 12, control = 100%; for reduction of lung colonies / tail vein metastasis (in words): tail vein injection of B16a. From the text: (§1) B16 amelanotic melanoma (B16a) and Walker 256 L-Pam carcinosarcoma were obtained from the Division of Cancer Treatment, Animal and Human Tumor Bank, Mason Research Institute, Worcester, Mass. Tumors were passaged four times after receipt in syngeneic C57BL/6J male mice (B16a) or allogenic Sprague Dawley rats (Walker 256 L-Pam). Passaging involved subcutaneous implantations of tumor pices (diced to approximately 2×2 MM) into the right auxiliary region using a 18 gauge needle. Mice weighing approximately 20 grams (4 to 5 weeks old) were used to passage the B16a cell line and female rats were used to passage the Walker 256 L-Pam cell line. Animals were housed under identical conditions of temperature, feeding, photoperiod, etc. The transplanted tumors were allowed to grow for approximately 14 days following implantation.
(§2) The B16a tumor cells, obtained by the previously described procedure of tumor dispersion and tumor cell elutriation were used to test the antimetastatic effect of BAY e 9736.
A 40 mg portion of BAY e 9736 was dissolved in 1 ml of polyethylene glycol (PEG-400). This stock solution was diluted 1:5, 1:10, 1:50 and 1:1000 with PEG-400. C56BL/6J mice weighing an average of 20 grams were injected orally with 0.1 ml of the diluted BAY e 9736 one hour before and one hour after challenge with tumor cells. One hour after the first oral administration of BAY e 9736, the mice were injected via the tail vein with a 3×10^4 B16a tumor cell suspension in 0.05 ml prepared as described previously. The control and treated mice were kept under identical conditions of temperature, feeding) photoperiod, etc. The mice were sacrificed 21 days after tail vein injection of the tumor cells and the lungs were removed, fixed in Bouin's solution and visible bilateral metastasis counted.

Assay [2] concerns B16a Tumor Cells. Put plainly: "Spontaneous" lung metastasis from an in vivo subcutaneous implant of B16a tumor cells. Further details: species or system mouse. Conditions: mice; for % of Control (mean number of pulmonary metastases): oral once daily, 27 days, x ± SEM, N = 10, control = 100%; for reduction of spontaneous metastasis (in words): chronic oral administration.
Description: as §1, §2
The effect of chronic oral administration of BAY e 9736 on spontaneous lung metastasis from a primary subcutaneous B16a tumor was also determined. A 16 mg portion of BAY e 9736 was dissolved in 1 ml of PEG-400 and diluted 1:8, 1:32, 1:80, and 1:800. Syngeneic C56BL/6J mice were injected subcutaneously with 1×10^5 B16a tumor cells in 0.1 ml prepared as previously described. Starting one day post tumor injection, the mice were administered BAY e 9736 orally once a day for 27 days with 0.1 ml of the diluted BAY e 9736. The control and treated mice were housed under identical conditions of temperature, feeding and photoperiod, etc. The mice were sacrificed 28 days after the injection of tumor cells and the lungs were removed in Bouin's solution and visible bilateral metastasis counted.

Assay [3] relates to B16a Tumor Cells. The assay can be described thus: In vitro proliferation of B16a tumor cells. Type of assay: cell-based, mouse. Conditions: for effect on tumor cell proliferation (in words): B16a cells, 10-40 micrograms/ml, five day assay. The procedure: Proliferation studies were designed to measure the effects of BAY e 9736 on the proliferation of B16 a tumor cells. B16a tumor cells were plated into T-25 flasks (4×10^4 cells/flask) and allowed to grow at 37° C. for 16 hours. The media was removed from the flasks and plating efficiency was determined using a Coulter counter. Replacement media was added to the flasks, which were allowed to incubate for 24 hours. After the 24 hour incubation, 10 microliters of control (media), DMSO, or BAY e 9736 in DMSO (40 mg/ml stock) was added to the flasks. Media replacement with and without BAY e 9736 were performed every 24 hours for 4 consecutive days. Control flasks (3) were terminated every day of the proliferation study with 4 terminated on the final day.
A 40 mg aliquot of BAY e 9736 was dissolved in 1 milliliter dimethyl sulfoxide (DMSO). Aliquots of this 40 mg/ml stock were diluted with DMSO to final concentrations of 20 and 10 mg/ml. At day two and each successive day, 10 microliter aliquots of 40, 20, and 10 mg/ml BAY e 9736 were added once a day to the new media of flasks containing proliferating B16a tumor cells as previously described.

The values below come from US4690935A, “Inhibition of tumor growth and metastasis with calcium channel blocker compounds” (Wayne State University, priority 1983, dated 1987).

Turning to `COCCOC(=O)C1=C(C)NC(C)=C(C(=O)OC(C)C)C1c1cccc([N+](=O)[O-])c1` (stereo not drawn) [BAY e 9736, 1,4-dihydro-2,6-dimethyl-4-(3' nitrophenyl)-pyridine-3-(beta-methyoxyethylester)-5-(isopropyl ester)], the “% of Control (mean number of metastatic lesions on lung surface)” value is 55 ± 5% in the assay with B16a Tumor Cells [1] (0.2 mg/kg), 60 ± 7% in the assay on B16a Tumor Cells [1] (4.0 mg/kg), 73 ± 13.7% in the assay on B16a Tumor Cells [1] (20.0 mg/kg) and 74 ± 7.5% with B16a Tumor Cells [1] (40.0 mg/kg). Further, the “reduction of lung colonies / tail vein metastasis (in words)” value is “effective in reducing the number of lung colonies at all levels examined” in the assay with B16a Tumor Cells [1] and “reduce metastasis induced by tail vein injection” in the assay with B16a Tumor Cells [1] (listed as nimodipine). The “% of Control (mean number of pulmonary metastases)” value with B16a Tumor Cells [2] (0.1 mg/kg) was determined as 68 ± 14%; with B16a Tumor Cells [2] (1.0 mg/kg), 45 ± 9%; with B16a Tumor Cells [2] (2.5 mg/kg) it was 33 ± 22%; in the assay on B16a Tumor Cells [2] (10.0 mg/kg) it was 28 ± 7%; in the assay with B16a Tumor Cells [2] (80.0 mg/kg) it was 19 ± 6%. For the same compound, the “reduction of spontaneous metastasis (in words)” value with B16a Tumor Cells [2] is recorded as “effective in decreasing the number of spontaneous metastasis as compared to the control mice”; in the assay with B16a Tumor Cells [2] (listed as nimodipine) it was “significantly reduce spontaneous metastasis”. Also, the figures for the “effect on tumor cell proliferation (in words)” value in the assay on B16a Tumor Cells [3] and in the assay with B16a Tumor Cells [3] (listed as nimodipine) were “inhibits tumor cell proliferation” and “decreases the rate of tumor cell growth over a five day assay period”, respectively. Further, the activity at 10 µg/mL in the assay on B16a Tumor Cells [3] (Mus musculus, .01 mg/ml, drug readded once daily, x ± SEM, n = 4, read-out: % of Control Tumor Cell Number) is 50 ± 5%. Moreover, the activity at 20 µg/mL in the assay with B16a Tumor Cells [3] (Mus musculus, .02 mg/ml, drug readded once daily, x ± SEM, n = 4, read-out: % of Control Tumor Cell Number) was found to be 25 ± 5%. Also, the activity at 40 µg/mL in the assay on B16a Tumor Cells [3] (Mus musculus, .04 mg/ml, drug readded once daily, x ± SEM, n = 4, read-out: % of Control Tumor Cell Number) is 14 ± 3%.
